The record followed here is patent publication US20220053777A1, “NON-TOXIC ANT-REPELLING GEL” (priority 2013, published 2022).

The nature of the series: Observation of polymerization (viscosity increase) of oleic acid with/without fumed silica and air. It is filed as physicochemical. The text has this: We can conclude that it is the addition of fumed silica to the oleic acid formula which is responsible for promoting this polymerization reaction. […] Based on chemical fundamentals we theorize that it is the fumed silica's high surface area that acts as the catalyst to increase the reaction between the oleic acid and oxygen in the air to promote oxidation, resulting in cross-linking, resulting in polymerization, resulting in an increase in viscosity and hardening. Since only some of the oleic acid molecules participate in this polymerization reaction, the rest of the oleic acid in the gel formulation is free to still act as an effective repellent.

Molecules are shown by their SMILES.

For the compound `CCCCCCCC/C=C\CCCCCCCC(=O)O` [Oleic Acid, oleic acid], the Polymerization result (Exposure to Air: Yes) is recorded as “No”. Besides, the “increase in viscosity (polymerization)” value (exposed to air, temperatures normally encountered in the environment) was “no substantial increase in viscosity”.
